Measurements as given in US20210330611A1, “THERAPY FOR NEUROLOGICAL DISEASES/DISORDERS” (priority 2020, published 2021).
Counter-ions that a name gives are not always drawn. Like-named read-outs stand apart in the source and are kept apart here. Where a SMILES comes first, the peptide text is derived from it. [ ]: non-standard residue; d: D form. pGlu = O=C1CC[C@@H](C(=O)O)N1; Thz = O=C(O)[C@@H]1CSCN1

Tests used:
primary rat microglia [1] = test system: primary rat microglia
primary rat microglia [2] = assay: Cell toxicity (dead cells, size <150 μm2) in coated fibrin (cFib) assay; details: primary microglia HTS;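 also: share of dead cells sized under 150 µm2 at 10 µM in fibrin-stimulated microglia HTS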
[3] = test system: fibrin-induced microglia activation; assay: Image-based assay of fibrin-induced microglia activation (HTS and dose response); format: cell-based, rat; details: primary microglia HTS, fibrin stimulation; for inhibition at 10 µM: Rattus norvegicus, Microglia, read-out: Fibrin % inhibition
[4] = test system: fibrin- and LPS-induced microglia activation; assay: cells; format: cell-based, rat
[5] = test system: LPS-induced microglia activation; assay: Image-based assay of LPS-induced microglia activation (HTS and dose response); format: cell-based, rat; details: for inhibition at 10 µM: Rattus norvegicus, Microglia, read-out: LPS % inhibition
[6] = fibrin stimulation, cell size <150 μm2 as marker of toxicity
[7] = cell size >800 μm2 as marker of activation
[8] = classification by fibrin and LPS inhibition in HTS
[9] = 48 h, primary microglia HTS, LPS stimulation, cell size >800 μm2 as marker of activation

Row | Structure (SMILES) | LPS % cell toxicity (primary rat microglia [1]; rat) | Fibrin % cell toxicity (primary rat microglia [2]; [6]) | inhibition at 10 µM [3, 7] | Quadrant (FIG. 5b) [4, 8] | inhibition at 10 µM ([5]; 48 h) | Fibrin % cell toxicity (primary rat microglia [2]; fibrin assay, dead cells (size <150 μm2)) | inhibition at 10 µM ([3]; compounds at 10 μM) | Quadrant (FIG. 5b) ([4]; quadrant by fibrin and LPS inhibition, HTS at 10 μM) | inhibition at 10 µM ([5]; primary microglia HTS, LPS stimulation, compounds at 10 μM) | inhibition at 10 µM [5, 9] | LPS % cell toxicity (primary rat microglia [1]) | Fibrin % inhibition [3, 7] | LPS % inhibition [5]
1 | CC1(C)S[C@@H]2[C@H](NC(=O)COc3ccccc3)C(=O)N2[C@H]1C(=O)O [Phenoxymethylpenicillin] | 0% | 1% | 0% | Q4 | 14% | – | – | – | – | – | – | – | –
2 | CN1C(=O)CC(c2ccccc2)C1=O (stereo not drawn) [Phensuximide] | 0% | 1% | -7% | Q4 | 4% | – | – | – | – | – | – | – | –
3 | Cc1ccc(N(CC2=NCCN2)c2cccc(O)c2)cc1 [Phentolamine] | 0% | 0% | -21% | Q4 | 17% | – | – | – | – | – | – | – | –
4 | N[C@@H](COP(=O)(O)O)C(=O)O [Phosphonoserine] | 0% | 1% | -6% | Q4 | 10% | – | – | – | – | – | – | – | –
5 | CC(=O)NS(=O)(=O)c1ccc(NC(=O)c2ccccc2C(=O)O)cc1 [Phthalylsulfacetamide] | 0% | 1% | 1% | Q4 | -1% | – | – | – | – | – | – | – | –
6 | O=C(O)c1ccccc1C(=O)Nc1ccc(S(=O)(=O)Nc2nccs2)cc1 [Phthalylsulfathiazole] | 1% | 1% | 3% | Q4 | 13% | – | – | – | – | – | – | – | –
7 | NCc1cccnc1 [Picolamine] | 0% | 1% | -1% | Q4 | 4% | – | – | – | – | – | – | – | –
8 | OCc1ccccn1 [Piconol] | 1% | 1% | -1% | Q4 | 26% | – | – | – | – | – | – | – | –
9 | O=C1CC[C@@H](C(=O)O)N1 [Pidolic Acid] | 0% | 1% | -57% | Q4 | 15% | – | – | – | – | – | – | – | –
10 | O=C1CC[C@@H](C(=O)N2CSC[C@H]2C(=O)O)N1 [Pidotimod] ([pGlu]-[Thz]-OH) | 0% | 1% | -10% | Q4 | 14% | – | – | – | – | – | – | – | –
11 | CC[C@@H]1C(=O)OC[C@@H]1Cc1cncn1C [Pilocarpine] | 0% | 1% | -2% | Q4 | 14% | – | – | – | – | – | – | – | –
12 | CN1CCC(=C2c3ccccc3Sc3ccccc32)CC1 [Pimethixene Maleate] | 2% | – | – | – | – | 6% | 112% | Q2 | 92% | – | – | – | –
13 | CC(C)NCC(O)COc1cccc2[nH]ccc12 (stereo not drawn) [Pindolol] | 1% | 1% | -13% | Q4 | 24% | – | – | – | – | – | – | – | –
14 | CCc1ccc(CCOc2ccc(CC3SC(=O)NC3=O)cc2)nc1 (stereo not drawn) [Pioglitazone] | 1% | 1% | 2% | Q4 | 33% | – | – | – | – | – | – | – | –
15 | NC(=O)C1(N2CCCCC2)CCN(CCCC(=O)c2ccc(F)cc2)CC1 [Pipamperone] | 0% | 1% | -4% | Q4 | – | – | – | – | – | 8% | – | – | –
16 | CCN1CCCC(OC(=O)C(c2ccccc2)c2ccccc2)C1 (stereo not drawn) [Piperidolate Hydrochloride] | 0% | 0% | -21% | Q4 | – | – | – | – | – | 8% | – | – | –
17 | O=C(/C=C/C=C/c1ccc2c(c1)OCO2)N1CCCCC1 [Piperine] | 0% | 1% | -13% | Q4 | 10% | – | – | – | – | – | – | – | –
18 | NC(=O)CN1CCCC1=O [Piracetam] | 0% | 0% | -21% | Q4 | 9% | – | – | – | – | – | – | – | –
19 | Cc1nc2ccccn2c(=O)c1CCN1CCC(C(=O)c2ccc(F)cc2)CC1 [Pirenperone] | 0% | 1% | 2% | Q4 | 20% | – | – | – | – | – | – | – | –
20 | Cc1cc(CC(C)CC(C)(C)C)n(O)c(=O)c1.NCCO (stereo not drawn) [Piroctone Olamine] | – | 1% | – | Q4 | – | – | – | – | – | – | 1% | 44% | 39%
21 | CCn1cc(C(=O)O)c(=O)c2cnc(N3CCCC3)nc21 [Piromidic Acid] | 0% | 1% | -30% | Q4 | 7% | – | – | – | – | – | – | – | –
22 | CN1C(C(=O)Nc2ccccn2)=C(O)c2ccccc2S1(=O)=O [Piroxicam] | 0% | 1% | 4% | Q4 | 19% | – | – | – | – | – | – | – | –
23 | CCCCOc1ccc(OCCCN2CCOCC2)cc1 [Pramocaine] | 0% | 0% | 14% | Q4 | 13% | – | – | – | – | – | – | – | –
24 | CC(C(=O)O)c1ccc2c(c1)Cc1cccnc1O2 (stereo not drawn) [Pranoprofen] | 0% | 1% | -14% | Q4 | – | – | – | – | – | 8% | – | – | –
